{"source": "patent US6358993B1", "about": "“Pharmaceutically active nitrogen ring compounds and methods of use thereof” (CeNes Pharmaceuticals, Inc., priority 1996, dated 2002)", "key": {"DBA/2 mice": {"test_system": "DBA/2 mice", "test": "In vivo anticonvulsant activity in the DBA/2 mouse model (mouse audiogenic assay)", "conditions": "30 minutes before auditory stimulus, inhibition relative to vehicle", "description": "As discussed above, preferred compounds of the invention in a standard anticonvulsant in vivo audiogenic test, such as the audiogenic mouse assay of Example 48 which follows, where DBA/2 mice about 20-23 days old are injected intraperitoneally with a test compound 30 minutes prior to being placed in a bell jar with exposure to auditory stimulus of 12 KHz sine wave at 110-120 db. References herein in vivo “audiogenic assay” are intended to refer to that protocol. […] As discussed above, activity in the audiogenic assay has been recognized as indicative that a test compound has neuroprotective properties. See, e.g., M. Tricklebank et al., European Journal of Pharmacology, supra; T. Seyfried, Federation Proceedings, supra.\nIn vivo Anticonvulsant Activity in the DBA/2 Mouse Model (Mouse Audiogenic Assay)\nCompounds were tested for their effectiveness in preventing seizures in DBA/2 mice which have a unique sensitivity to auditory stimulation. Exposure to loud high-frequency sounds can trigger seizure activity in these animals. This sensitivity develops from postnatal day 12 and peaks around day 21 and slowly diminishes as the animals mature. The unusual response to auditory stimulation in this strain of mouse is believed to be due to a combination of early myelination (causing an unusually low excitatory threshold) and delayed development of inhibitory mechanisms.\nMice were injected intraperitoneally with the compound specified in Table I below or with vehicle control, 30 minutes prior to being placed in a bell jar and turning on the auditory stimulus (12 KHz sine wave at 110-120 db). Administered doses are specified in Table I as milligram of compound per kilogram bodyweight of mouse. The auditory stimulus was left on for 60 seconds and mice reactions were timed and recorded. “FB” refers to free base."}, "in vivo models of stroke": {"test_system": "in vivo models of stroke", "conditions": "cited from earlier work"}, "mouse audiogenic tests": {"test_system": "mouse audiogenic tests", "conditions": "in vivo; cited from earlier work"}, "[1]": {"conditions": "in vivo; cited from earlier work"}}, "note": "Structures can show the parent of a compound that is named as a salt.", "data": [{"compound": "N=C(Nc1cc(Br)ccc1Br)N1CCCc2ccc(C(F)(F)F)cc21", "note": "(as salt: hydrochloride) [Example 35, N-(2,5-dibromophenyl)-(7-trifluoromethyl-1,2,3,4-tetrahydroquinolinyl)carboximidamide Hydrochloride]", "values": [{"measurement": "melting point", "result": "201 to 202", "unit": "°C"}]}, {"compound": "N=C(N)N1Cc2ccccc2CCc2ccccc21", "note": "(as salt: hydrochloride) [Example 41, 5,6,11,12-tetrahydrodibenz[b,f]azocin-carboximidanmide.hydrochloride]", "values": [{"measurement": "melting point", "result": "238 to 240", "unit": "°C"}]}, {"compound": "N=C(Nc1cccc2ccccc12)N1CCc2ccccc21", "note": "[Example 2, N-(1-Naphthyl)-1-indolinylcarboximidamide]", "values": [{"measurement": "Audiogenic Response % Inhib.", "setting": "DBA/2 mice; dose 2 mg/kg i.p.", "result": 82, "unit": "%"}, {"measurement": "Audiogenic Response % Inhib.", "setting": "DBA/2 mice; dose 10 mg/kg i.p.", "result": 100, "unit": "%"}]}, {"compound": "CS(=O)(=O)O.N=C(Nc1ccc(OCc2ccccc2)cc1)N1CCc2ccccc21", "note": "[Example 4, N-(4-Benzyloxyphenyl)-1-indolinylcarboximidamide.mesylate]", "values": [{"measurement": "Audiogenic Response % Inhib.", "setting": "DBA/2 mice; dose 20 mg/kg i.p.", "result": 32, "unit": "%"}]}, {"compound": "COc1ccc(NC(=N)N2CCc3ccccc32)c2ccccc12.CS(=O)(=O)O", "note": "[Example 5, N-(4-Methoxynaphthyl)-1-indolinylcarboxidamide.mesylate]", "values": [{"measurement": "Audiogenic Response % Inhib.", "setting": "DBA/2 mice; dose 5 mg/kg i.p.", "result": 50, "unit": "%"}, {"measurement": "Audiogenic Response % Inhib.", "setting": "DBA/2 mice; dose 10 mg/kg i.p.", "result": 68, "unit": "%"}, {"measurement": "Audiogenic Response % Inhib.", "setting": "DBA/2 mice; dose 20 mg/kg i.p.", "result": 87, "unit": "%"}]}, {"compound": "N=C(Nc1ccc(Cl)c(Cl)c1)N1CCc2ccccc21", "note": "[Example 6, N-(3,4-Dichlorophenyl)-1-indolinylcarboximidamide]", "values": [{"measurement": "Audiogenic Response % Inhib.", "setting": "DBA/2 mice; dose 10 mg/kg i.p.", "result": 41, "unit": "%"}, {"measurement": "Audiogenic Response % Inhib.", "setting": "DBA/2 mice; dose 20 mg/kg i.p.", "result": 83, "unit": "%"}]}, {"compound": "CCc1cccc2c1N(C(=N)Nc1cccc3ccccc13)CC2", "note": "[Example 9, N-(1-Naphthyl)-1-(7-ethyl)-indolinylcarboximidaide]", "values": [{"measurement": "Audiogenic Response % Inhib.", "setting": "DBA/2 mice; dose 20 mg/kg i.p.", "result": 28, "unit": "%"}]}, {"compound": "Cl.N=C(Nc1cccc(Cl)c1Cl)N1CCc2ccccc21", "note": "[Example 11, N-(2,3-dichiorophenyl)-1-indolinylcarboximidamide.HCl]", "values": [{"measurement": "Audiogenic Response % Inhib.", "setting": "DBA/2 mice; dose 10 mg/kg i.p.", "result": 55, "unit": "%"}]}, {"compound": "Cc1cccc(NC(=N)N2CCc3ccccc32)c1C.Cl", "note": "[Example 12, N-(2,3-dimethylphenyl)-1-indolinylcarboximidamide.HCl]", "values": [{"measurement": "Audiogenic Response % Inhib.", "setting": "DBA/2 mice; dose 2 mg/kg i.p.", "result": 23, "unit": "%"}, {"measurement": "Audiogenic Response % Inhib.", "setting": "DBA/2 mice; dose 5 mg/kg i.p.", "result": 67, "unit": "%"}, {"measurement": "Audiogenic Response % Inhib.", "setting": "DBA/2 mice; dose 10 mg/kg i.p.", "result": 88, "unit": "%"}]}, {"compound": "Cl.N=C(Nc1cccc2c1CCCC2)N1CCc2ccccc21", "note": "[Example 13, N-(5,6,7,8-tetrahydro-1-naphthyl)-1-indolinylcarboximidamide.HCl]", "values": [{"measurement": "Audiogenic Response % Inhib.", "setting": "DBA/2 mice; dose 10 mg/kg i.p.", "result": 48, "unit": "%"}, {"measurement": "Audiogenic Response % Inhib.", "setting": "DBA/2 mice; dose 20 mg/kg i.p.", "result": 80, "unit": "%"}]}, {"compound": "CCc1ccc(Cl)c(NC(=N)N2CCCc3ccc(C(F)(F)F)cc32)c1.Cl", "note": "[Example 19, N-(2-chloro-5-ethylphenyl)-[(7-trifluoromethyl)-1,2,3,4-tetrahydroquinolinyl]carboximidamiide.HCl]", "values": [{"measurement": "Audiogenic Response % Inhib.", "setting": "DBA/2 mice; dose 10 mg/kg i.p.", "result": 44, "unit": "%"}, {"measurement": "Audiogenic Response % Inhib.", "setting": "DBA/2 mice; dose 20 mg/kg i.p.", "result": 91, "unit": "%"}]}, {"compound": "Cl.N=C(Nc1cccc2ccccc12)N1CCCc2ccc(C(F)(F)F)cc21", "note": "[Example 20]", "values": [{"measurement": "Audiogenic Response % Inhib.", "setting": "DBA/2 mice; dose 4 mg/kg i.p.", "result": 13, "unit": "%"}]}, {"compound": "Cl.N=C(Nc1cccc2ccccc12)N1CCCc2ccccc21", "note": "[Example 21, N-(1-naphthyl)-(1,2,3,4-tetrahydroquinolinyl)carboximidamide.HCl]", "values": [{"measurement": "Audiogenic Response % Inhib.", "setting": "DBA/2 mice; dose 1 mg/kg i.p.", "result": 13, "unit": "%"}, {"measurement": "Audiogenic Response % Inhib.", "setting": "DBA/2 mice; dose 2 mg/kg i.p.", "result": 62, "unit": "%"}, {"measurement": "Audiogenic Response % Inhib.", "setting": "DBA/2 mice; dose 4 mg/kg i.p.", "result": 88, "unit": "%"}]}, {"compound": "Cl.N=C(Nc1cccc(-c2ccccc2)c1)N1Cc2cccc3cccc1c23", "note": "[Example 22, N-(3-biphenyl)-1-(benz[cd]indolinyl)carboximdamide.HCl]", "values": [{"measurement": "Audiogenic Response % Inhib.", "setting": "DBA/2 mice; dose 10 mg/kg i.p.", "result": 23, "unit": "%"}]}, {"compound": "Cc1ccccc1NC(=N)N1Cc2cccc3cccc1c23.Cl", "note": "[Example 23, N-(2-tolyl)-1-(benz[cd]indolinyl)carboximidamnide.HCl]", "values": [{"measurement": "Audiogenic Response % Inhib.", "setting": "DBA/2 mice; dose 1 mg/kg i.p.", "result": 53, "unit": "%"}, {"measurement": "Audiogenic Response % Inhib.", "setting": "DBA/2 mice; dose 2 mg/kg i.p.", "result": 61, "unit": "%"}, {"measurement": "Audiogenic Response % Inhib.", "setting": "DBA/2 mice; dose 4 mg/kg i.p.", "result": 95, "unit": "%"}]}, {"compound": "Cc1ccc(C)c(NC(=N)N2Cc3cccc4cccc2c34)c1.Cl", "note": "[Example 25, N-(2,5-dimethylphenyl)-1-benz[cd]indolinylcarboximidamide.HCl]", "values": [{"measurement": "Audiogenic Response % Inhib.", "setting": "DBA/2 mice; dose 5 mg/kg i.p.", "result": 59, "unit": "%"}, {"measurement": "Audiogenic Response % Inhib.", "setting": "DBA/2 mice; dose 10 mg/kg i.p.", "result": 76, "unit": "%"}]}, {"compound": "Cc1ccc2c(c1)CCCN2C(=N)Nc1cccc2ccccc12.Cl", "note": "[Example 33, N-(1-naphthyl)-(6-methyl-1,2,3,4-tetrahydroquinolinyl)carboximidamide Hydrochloride]", "values": [{"measurement": "Audiogenic Response % Inhib.", "setting": "DBA/2 mice; dose 4 mg/kg i.p.", "result": 62, "unit": "%"}]}, {"compound": "C[C@]12N[C@H](Cc3ccccc31)c1ccccc12", "note": "[MK-801]", "values": [{"measurement": "results in in vivo models of stroke", "setting": "in vivo models of stroke", "result": "good results"}, {"measurement": "activity in mouse audiogenic tests", "setting": "mouse audiogenic tests", "result": "good activity"}, {"measurement": "toxicity", "setting": "[1]", "result": "has shown toxicity"}]}, {"compound": "N=C(Nc1cccc2ccccc12)N1CCc2ccccc2C1", "note": "[N-(1-naphthyl)-1,2,3,4-tetrahydroisoquinolinyl)carboximidamide]", "values": [{"measurement": "Audiogenic Response % Inhib.", "setting": "DBA/2 mice; dose 20 mg/kg i.p.", "result": 41, "unit": "%"}]}, {"compound": "N-(2-biphenyl)-1-indolinylcarboximidamide.HCl [Example 14]", "values": [{"measurement": "Audiogenic Response % Inhib.", "setting": "DBA/2 mice; dose 20 mg/kg i.p.", "result": 56, "unit": "%"}]}, {"compound": "N-(5-Acenaphthyl)-1-(5-bromo)-indolinylcarboximidamide [Example 8]", "values": [{"measurement": "Audiogenic Response % Inhib.", "setting": "DBA/2 mice; dose 20 mg/kg i.p.", "result": 11, "unit": "%"}]}, {"compound": "N-(5-Acenaphthyl)-1-(5-methoxy)-1-indolinylcarboximidamide.HCl [Example 7]", "values": [{"measurement": "Audiogenic Response % Inhib.", "setting": "DBA/2 mice; dose 10 mg/kg i.p.", "result": 21, "unit": "%"}]}]}
